Common to all, as to test: KINOMEscan competition binding
The target in test [1] is KIT-autoinhibited (Homo sapiens, UniProt P10721). As to conditions: read-out: %Inh KIT-autoinhibited.
Test [2] deals with ACVR2A (Homo sapiens, UniProt P27037). As to conditions: read-out: %Inh ACVR2A.
The target of test [3] is T1, AXL (Homo sapiens, UniProt P30530).
T1 sequence (P30530 26-894): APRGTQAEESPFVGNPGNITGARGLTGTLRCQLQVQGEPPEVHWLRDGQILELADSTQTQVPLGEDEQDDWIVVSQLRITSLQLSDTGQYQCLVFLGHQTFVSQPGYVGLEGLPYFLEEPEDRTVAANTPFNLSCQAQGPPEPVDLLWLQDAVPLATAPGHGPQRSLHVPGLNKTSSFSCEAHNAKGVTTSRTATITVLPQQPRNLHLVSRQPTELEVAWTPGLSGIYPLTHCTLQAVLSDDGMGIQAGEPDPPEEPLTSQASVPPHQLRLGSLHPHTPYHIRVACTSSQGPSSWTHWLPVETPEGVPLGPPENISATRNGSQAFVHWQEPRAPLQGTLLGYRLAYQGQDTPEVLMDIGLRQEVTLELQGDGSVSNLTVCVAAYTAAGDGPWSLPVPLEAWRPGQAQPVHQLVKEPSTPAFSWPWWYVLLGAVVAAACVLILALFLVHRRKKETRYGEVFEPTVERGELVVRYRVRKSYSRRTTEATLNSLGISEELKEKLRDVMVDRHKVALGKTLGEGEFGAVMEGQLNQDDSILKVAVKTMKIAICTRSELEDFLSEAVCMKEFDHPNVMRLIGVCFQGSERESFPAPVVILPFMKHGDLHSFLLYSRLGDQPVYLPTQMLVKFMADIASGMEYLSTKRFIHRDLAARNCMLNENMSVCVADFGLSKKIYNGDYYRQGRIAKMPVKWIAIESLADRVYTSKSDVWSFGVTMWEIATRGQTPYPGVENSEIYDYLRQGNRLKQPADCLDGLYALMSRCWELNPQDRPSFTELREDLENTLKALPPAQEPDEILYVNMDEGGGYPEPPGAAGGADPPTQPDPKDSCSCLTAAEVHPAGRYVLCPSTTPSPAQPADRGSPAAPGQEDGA
As to conditions: read-out: %Inh AXL.

The target in test [4] is EPHA4 (Homo sapiens, UniProt P54764). As to conditions: read-out: %Inh EPHA4.
The target in test [5] is T2, BRSK1 (Homo sapiens, UniProt Q8TDC3).
T2 sequence (Q8TDC3 1-778): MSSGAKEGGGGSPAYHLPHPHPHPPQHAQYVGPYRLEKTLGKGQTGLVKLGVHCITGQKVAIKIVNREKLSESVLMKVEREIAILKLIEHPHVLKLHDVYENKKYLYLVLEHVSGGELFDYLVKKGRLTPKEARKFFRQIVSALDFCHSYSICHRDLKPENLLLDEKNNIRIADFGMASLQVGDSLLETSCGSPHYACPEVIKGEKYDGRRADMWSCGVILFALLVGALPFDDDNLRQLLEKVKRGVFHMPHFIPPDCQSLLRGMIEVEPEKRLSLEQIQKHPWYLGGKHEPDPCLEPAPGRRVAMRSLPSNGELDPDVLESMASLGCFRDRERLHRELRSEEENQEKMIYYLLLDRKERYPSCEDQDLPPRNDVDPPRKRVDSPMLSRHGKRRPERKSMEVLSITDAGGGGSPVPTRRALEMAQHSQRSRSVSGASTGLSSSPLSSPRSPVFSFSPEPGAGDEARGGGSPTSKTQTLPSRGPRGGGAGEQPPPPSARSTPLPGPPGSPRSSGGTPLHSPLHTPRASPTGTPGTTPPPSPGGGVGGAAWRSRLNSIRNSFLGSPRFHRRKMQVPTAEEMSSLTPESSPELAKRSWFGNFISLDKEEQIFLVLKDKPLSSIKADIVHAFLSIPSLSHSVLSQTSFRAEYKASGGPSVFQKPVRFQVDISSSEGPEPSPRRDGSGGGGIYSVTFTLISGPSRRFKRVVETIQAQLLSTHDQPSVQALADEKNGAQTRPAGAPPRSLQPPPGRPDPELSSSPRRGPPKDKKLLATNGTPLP
Particulars: read-out: %Inh BRSK1.

Test [6] deals with T3, IKK-beta (Homo sapiens, UniProt O14920).
T3 sequence (O14920 1-756): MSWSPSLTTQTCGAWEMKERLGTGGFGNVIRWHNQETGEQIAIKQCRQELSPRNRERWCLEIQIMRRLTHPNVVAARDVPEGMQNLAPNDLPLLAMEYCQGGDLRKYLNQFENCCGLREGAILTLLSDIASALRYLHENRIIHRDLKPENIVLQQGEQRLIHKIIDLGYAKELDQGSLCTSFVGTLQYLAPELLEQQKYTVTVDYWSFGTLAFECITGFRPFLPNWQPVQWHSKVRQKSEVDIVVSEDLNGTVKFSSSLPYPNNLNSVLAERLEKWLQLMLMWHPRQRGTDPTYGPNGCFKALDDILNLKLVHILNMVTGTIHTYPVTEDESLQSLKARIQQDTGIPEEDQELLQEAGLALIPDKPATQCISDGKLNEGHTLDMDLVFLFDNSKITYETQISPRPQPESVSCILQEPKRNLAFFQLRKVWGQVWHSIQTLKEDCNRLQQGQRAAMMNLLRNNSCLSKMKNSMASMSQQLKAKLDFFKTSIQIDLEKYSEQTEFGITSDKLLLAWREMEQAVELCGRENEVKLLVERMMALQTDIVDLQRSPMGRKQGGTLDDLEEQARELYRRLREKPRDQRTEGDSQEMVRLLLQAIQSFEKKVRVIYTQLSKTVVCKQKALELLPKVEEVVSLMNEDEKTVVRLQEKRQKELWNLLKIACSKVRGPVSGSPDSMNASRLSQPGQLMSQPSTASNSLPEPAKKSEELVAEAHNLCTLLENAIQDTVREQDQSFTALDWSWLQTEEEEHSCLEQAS
Particulars: read-out: %Inh IKK-beta.

For test [7], the target named is ABL2 (Homo sapiens, UniProt P42684). Particulars: read-out: %Inh ABL2.
The target in test [8] is INSR (Homo sapiens, UniProt P06213). Particulars: read-out: %Inh INSR.
INSR, sequence (P06213 28-1382): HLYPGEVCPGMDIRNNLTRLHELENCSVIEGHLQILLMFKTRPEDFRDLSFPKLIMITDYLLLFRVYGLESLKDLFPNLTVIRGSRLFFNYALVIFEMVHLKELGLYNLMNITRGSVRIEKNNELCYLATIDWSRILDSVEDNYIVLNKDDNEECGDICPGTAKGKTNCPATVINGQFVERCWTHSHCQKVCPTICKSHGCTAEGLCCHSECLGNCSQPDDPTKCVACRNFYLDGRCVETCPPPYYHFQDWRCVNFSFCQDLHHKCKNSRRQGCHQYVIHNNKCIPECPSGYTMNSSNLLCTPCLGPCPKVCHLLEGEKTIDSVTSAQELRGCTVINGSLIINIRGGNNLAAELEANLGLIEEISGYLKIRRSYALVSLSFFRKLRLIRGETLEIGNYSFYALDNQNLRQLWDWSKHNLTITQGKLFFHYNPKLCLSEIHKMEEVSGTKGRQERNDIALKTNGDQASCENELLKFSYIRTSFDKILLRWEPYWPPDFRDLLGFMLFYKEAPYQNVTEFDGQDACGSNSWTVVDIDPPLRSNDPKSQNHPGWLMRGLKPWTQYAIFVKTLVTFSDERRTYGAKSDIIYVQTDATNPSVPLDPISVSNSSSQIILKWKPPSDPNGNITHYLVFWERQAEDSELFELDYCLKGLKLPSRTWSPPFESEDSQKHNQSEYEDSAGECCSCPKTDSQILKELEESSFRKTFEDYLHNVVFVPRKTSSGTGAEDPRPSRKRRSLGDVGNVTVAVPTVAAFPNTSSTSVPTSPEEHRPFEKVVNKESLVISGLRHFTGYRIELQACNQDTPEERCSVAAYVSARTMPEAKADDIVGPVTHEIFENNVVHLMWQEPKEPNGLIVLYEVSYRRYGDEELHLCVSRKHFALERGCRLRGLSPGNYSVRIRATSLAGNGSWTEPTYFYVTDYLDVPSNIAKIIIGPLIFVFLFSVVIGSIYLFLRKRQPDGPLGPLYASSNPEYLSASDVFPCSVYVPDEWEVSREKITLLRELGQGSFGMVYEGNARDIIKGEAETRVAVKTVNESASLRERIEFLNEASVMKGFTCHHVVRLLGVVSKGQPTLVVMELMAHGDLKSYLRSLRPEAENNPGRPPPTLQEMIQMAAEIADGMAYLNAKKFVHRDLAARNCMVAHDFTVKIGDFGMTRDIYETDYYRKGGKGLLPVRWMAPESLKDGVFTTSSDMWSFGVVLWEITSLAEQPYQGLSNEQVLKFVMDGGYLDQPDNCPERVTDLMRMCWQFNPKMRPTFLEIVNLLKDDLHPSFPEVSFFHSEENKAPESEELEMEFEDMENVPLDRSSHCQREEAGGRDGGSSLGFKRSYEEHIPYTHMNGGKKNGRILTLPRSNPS

ACVR2A, sequence (P27037 20-513): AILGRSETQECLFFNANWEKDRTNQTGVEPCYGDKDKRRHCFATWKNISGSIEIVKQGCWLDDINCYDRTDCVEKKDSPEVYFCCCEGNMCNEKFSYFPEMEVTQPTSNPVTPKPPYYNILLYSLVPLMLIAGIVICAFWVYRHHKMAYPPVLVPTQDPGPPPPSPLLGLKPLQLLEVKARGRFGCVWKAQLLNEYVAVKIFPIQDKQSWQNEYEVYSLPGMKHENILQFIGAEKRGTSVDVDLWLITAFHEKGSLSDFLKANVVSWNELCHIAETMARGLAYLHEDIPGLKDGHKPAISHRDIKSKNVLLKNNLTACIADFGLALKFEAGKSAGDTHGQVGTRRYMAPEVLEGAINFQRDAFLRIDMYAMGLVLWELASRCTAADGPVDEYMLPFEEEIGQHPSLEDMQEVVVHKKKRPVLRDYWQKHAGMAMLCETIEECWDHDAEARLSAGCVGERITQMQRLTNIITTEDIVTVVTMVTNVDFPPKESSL
KIT-autoinhibited, sequence (P10721 546-976 limits assumed): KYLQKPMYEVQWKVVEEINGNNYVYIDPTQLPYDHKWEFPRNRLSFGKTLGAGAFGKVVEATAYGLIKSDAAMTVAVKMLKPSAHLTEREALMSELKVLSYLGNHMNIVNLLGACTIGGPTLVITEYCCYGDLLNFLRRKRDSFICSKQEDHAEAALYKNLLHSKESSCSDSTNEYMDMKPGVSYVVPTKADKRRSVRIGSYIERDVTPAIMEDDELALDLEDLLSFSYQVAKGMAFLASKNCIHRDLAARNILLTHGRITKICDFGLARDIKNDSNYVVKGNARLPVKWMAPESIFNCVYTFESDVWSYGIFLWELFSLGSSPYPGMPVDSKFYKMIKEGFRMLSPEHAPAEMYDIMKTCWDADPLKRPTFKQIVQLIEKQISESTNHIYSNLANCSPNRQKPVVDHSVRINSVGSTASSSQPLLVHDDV
ABL2, sequence (P42684 whole entry): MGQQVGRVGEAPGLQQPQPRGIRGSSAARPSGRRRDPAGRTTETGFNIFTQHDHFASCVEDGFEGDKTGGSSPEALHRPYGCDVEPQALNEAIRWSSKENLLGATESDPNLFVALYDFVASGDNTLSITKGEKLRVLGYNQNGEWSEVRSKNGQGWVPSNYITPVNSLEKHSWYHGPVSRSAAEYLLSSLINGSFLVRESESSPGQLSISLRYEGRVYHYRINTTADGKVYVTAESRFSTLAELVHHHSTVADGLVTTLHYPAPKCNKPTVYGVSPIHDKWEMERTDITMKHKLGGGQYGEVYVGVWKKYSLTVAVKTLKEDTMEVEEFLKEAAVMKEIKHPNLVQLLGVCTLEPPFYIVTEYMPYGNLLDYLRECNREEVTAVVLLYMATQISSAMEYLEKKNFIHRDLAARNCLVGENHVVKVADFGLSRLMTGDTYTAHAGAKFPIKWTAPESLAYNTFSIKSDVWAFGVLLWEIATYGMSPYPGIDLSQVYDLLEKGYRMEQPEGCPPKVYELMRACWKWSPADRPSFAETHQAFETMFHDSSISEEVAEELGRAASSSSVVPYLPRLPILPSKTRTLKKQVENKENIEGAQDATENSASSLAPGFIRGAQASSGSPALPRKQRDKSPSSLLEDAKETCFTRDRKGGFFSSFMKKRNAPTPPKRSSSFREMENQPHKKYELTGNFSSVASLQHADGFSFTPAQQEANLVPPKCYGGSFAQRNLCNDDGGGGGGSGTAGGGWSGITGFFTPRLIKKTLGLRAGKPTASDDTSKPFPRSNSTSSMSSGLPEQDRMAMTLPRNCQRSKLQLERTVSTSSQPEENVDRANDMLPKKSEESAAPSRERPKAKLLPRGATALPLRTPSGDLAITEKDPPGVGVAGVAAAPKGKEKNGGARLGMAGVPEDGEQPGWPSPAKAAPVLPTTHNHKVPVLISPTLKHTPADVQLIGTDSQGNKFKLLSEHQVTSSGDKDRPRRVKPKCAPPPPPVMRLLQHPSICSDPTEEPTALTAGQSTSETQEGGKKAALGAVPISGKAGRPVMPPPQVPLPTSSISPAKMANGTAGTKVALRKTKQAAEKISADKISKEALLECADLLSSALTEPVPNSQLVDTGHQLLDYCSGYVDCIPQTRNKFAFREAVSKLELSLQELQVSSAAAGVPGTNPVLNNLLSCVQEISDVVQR
EPHA4, sequence (P54764 20-986): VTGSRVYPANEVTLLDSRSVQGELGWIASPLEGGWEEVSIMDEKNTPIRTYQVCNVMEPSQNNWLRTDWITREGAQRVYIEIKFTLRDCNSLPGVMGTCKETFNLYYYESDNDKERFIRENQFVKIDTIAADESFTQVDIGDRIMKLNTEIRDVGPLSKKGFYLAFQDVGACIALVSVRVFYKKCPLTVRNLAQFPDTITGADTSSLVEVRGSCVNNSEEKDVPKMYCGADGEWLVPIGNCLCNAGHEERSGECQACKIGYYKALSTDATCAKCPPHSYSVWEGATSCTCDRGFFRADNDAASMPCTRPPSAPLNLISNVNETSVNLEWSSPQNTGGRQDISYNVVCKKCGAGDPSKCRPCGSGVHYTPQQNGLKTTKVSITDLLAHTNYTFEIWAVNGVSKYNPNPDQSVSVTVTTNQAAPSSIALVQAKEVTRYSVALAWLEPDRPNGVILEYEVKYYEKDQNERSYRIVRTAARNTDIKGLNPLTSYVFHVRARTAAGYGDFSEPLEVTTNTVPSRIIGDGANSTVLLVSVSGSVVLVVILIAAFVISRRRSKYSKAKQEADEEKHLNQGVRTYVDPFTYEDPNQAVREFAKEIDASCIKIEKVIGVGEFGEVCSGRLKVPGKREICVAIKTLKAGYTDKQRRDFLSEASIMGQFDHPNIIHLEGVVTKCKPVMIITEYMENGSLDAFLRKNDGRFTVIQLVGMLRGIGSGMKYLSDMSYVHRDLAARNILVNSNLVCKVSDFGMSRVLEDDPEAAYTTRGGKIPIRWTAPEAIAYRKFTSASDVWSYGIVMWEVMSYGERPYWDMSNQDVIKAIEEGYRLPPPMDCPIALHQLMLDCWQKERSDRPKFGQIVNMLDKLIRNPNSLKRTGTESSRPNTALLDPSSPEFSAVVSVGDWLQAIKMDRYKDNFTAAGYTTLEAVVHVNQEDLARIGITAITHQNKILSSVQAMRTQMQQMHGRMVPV

Turning to `COc1cccc(OC)c1C(=O)Nc1cccc(-c2nn3ccccc3c2-c2ccnc(Nc3cccc(F)c3)n2)c1` [UNC10225310A], the inhibition at 1 µM in test [1] came out at 11%; in test [2] it was 7%; in test [3] it was 30%; in test [4], 0%; in test [5], 0%; in test [6], 0%. For the same compound, the inhibition at 1 µM in test [7] came out at 100%; in test [8] it was 0%.

In the case of `O=c1cc(N2CCOCC2)nc2n(Cc3cccc(Cl)c3Cl)c(C3CC3)nn12` [UNC10225469A], the inhibition at 1 µM in test [1] was 15%; in test [2], 0%; in test [3] it was 3%; in test [4], 11%; in test [5] it was 3%; in test [6], 0%. For the same compound, the results for the inhibition at 1 µM in test [7] and in test [8] were 5% and 0%, respectively.

Turning to `Cn1cc(-c2cnc(N)c3c(-c4ccc5c(c4)CCN5C(=O)Cc4ccccc4)csc23)cn1` [UNC10225012A], the inhibition at 1 µM in test [1] worked out at 32%; in test [2], 0%; in test [3], 95.9%; in test [4] it was 11%; in test [5] it was 0%; in test [6], 0%. In addition, the inhibition at 1 µM in test [7] was found to be 81%; in test [8] it was 12%.

`CS(=O)(=O)Cc1ccc(Nc2nccc(-c3c(-c4cccc(NC(=O)C5CCCCC5)c4)nn4ncccc34)n2)cc1` [UNC10225159A]: the inhibition at 1 µM in test [1] worked out at 14%; in test [2], 0%; in test [3], 18%; in test [4], 14%; in test [5], 0%; in test [6], 12%. For the same compound, the inhibition at 1 µM is 5% in test [7] and 42% in test [8].

With `Cc1ccc(NC(=O)Nc2cccc(C(F)(F)F)c2)cc1` [UNC10225187A], the inhibition at 1 µM in test [1] is 3%; in test [2], 2%; in test [3] it was 0%; in test [4] it was 6%; in test [5] it was 0%; in test [6], 0%. Further, the inhibition at 1 µM in test [7] came to 3%; in test [8], 0%.

These data come from publication PMC5540273, “Progress towards a public chemogenomic set for protein kinases and a call for contributions” (PLoS ONE, 2017).
